Test results: ChEMBL document CHEMBL3868607, “Development of a novel series of non-natural triaryl agonists and antagonists of the Pseudomonas aeruginosa LasR quorum sensing receptor” (Bioorg Med Chem, 2017)
Calls of active or inactive are those of the source. No cut-off for these calls is given here.

Tests used:
[1] = Agonist activity at Pseudomonas aeruginosa GFP-fused LasR expressed in Escherichia coli BL21(DE3) after 4 to 6 hrs by fluorescence assay
Pseudomonas aeruginosa [2] = test: Agonist activity at Pseudomonas aeruginosa GFP-fused LasR expressed in Escherichia coli BL21(DE3) at 50 uM after 4 to 6 hrs by fluorescence assay relative to 3-oxo-C12 HSL
[3] = Antagonist activity at Pseudomonas aeruginosa LasR expressed in Escherichia coli DH5alpha after 4 to 6 hrs by beta-galactosidase reporter gene assay
Pseudomonas aeruginosa [4] = test: Antagonist activity at Pseudomonas aeruginosa GFP-fused LasR expressed in Escherichia coli BL21(DE3) at 50 uM after 4 to 6 hrs by fluorescence assay relative to (S)-2-(4-bromophenyl)-N-(2-oxotetrahydrofuran-3-yl) acetamide
Pseudomonas aeruginosa [5] = test: Irreversible inhibition of Pseudomonas aeruginosa GFP-fused LasR expressed in Escherichia coli BL21(DE3) at 50 uM after 4 to 6 hrs by fluorescence assay
[6] = Antagonist activity at Pseudomonas aeruginosa GFP-fused LasR expressed in Escherichia coli BL21(DE3) after 4 to 6 hrs by fluorescence assay

Row | Structure (SMILES) | EC50 [1] | Emax (Pseudomonas aeruginosa [2]) | IC50 [3] | Imax (Pseudomonas aeruginosa [4]) | inhibition (Pseudomonas aeruginosa [5]) | IC50 [6]
1 | O=C(Cc1cc(Br)cc(Br)c1OC(=O)c1ccccc1Cl)Nc1cccc([N+](=O)[O-])c1 | < 50000 nM | 0% |  |  |  | 
2 | CCCCCCCCCC(=O)CC(=O)N[C@H]1CCOC1=O | 64700 to 72900 nM |  |  |  |  | 
3 | O=C(Cc1ccc(Br)cc1)N[C@H]1CCOC1=O |  |  | 26300 nM |  |  | 
4 | O=C(Cc1cc(Br)cc(Br)c1OC(=O)CCN1C(=O)C=CC1=O)N[C@H]1CCOC1=O |  |  |  | 115% | Active | 23800 nM
5 | O=C(Cc1cc(Br)cc(Br)c1OC(=O)c1ccccc1)Nc1ccccc1[N+](=O)[O-] | < 50000 nM | 0% |  |  |  | 
6 | O=C(Cc1cc(Br)cc(Br)c1OC(=O)c1ccc(Cl)cc1)Nc1ccccc1[N+](=O)[O-] | < 50000 nM | 0% |  |  |  | 
7 | O=C(Cc1cc(Br)cc(Br)c1OC(=O)c1ccccc1Cl)Nc1ccc([N+](=O)[O-])cc1 | < 50000 nM | 0% |  |  |  | 
8 | O=C(Oc1c(Br)cc(Br)cc1CNC(=O)c1cccc(F)c1F)c1ccccc1Cl | > 50000 nM | 0% |  | 80% |  | 64500 nM
9 | Cc1cccc(C(=O)Oc2c(Br)cc(Br)cc2CC(=O)Nc2ccccc2[N+](=O)[O-])c1 | < 50000 nM | 24% |  |  |  | 
10 | O=C(NCc1cc(Br)cc(Br)c1OC(=O)c1ccccc1Cl)c1ccncn1 | 1630 nM | 90% |  | 0% |  | > 100000 nM
11 | O=C(Cc1cc(Br)cc(Br)c1OC(=O)c1cccc(Cl)c1)Nc1ccccc1[N+](=O)[O-] | < 50000 nM | 0% |  |  |  | 
12 | O=C(Cc1cc(Br)cc(Br)c1OC(=O)c1ccc(Br)cc1)Nc1ccccc1[N+](=O)[O-] | < 50000 nM | 35% |  |  |  | 
13 | O=C(Cc1cc(Br)cc(Br)c1OC(=O)c1ccc(F)cc1)Nc1ccccc1[N+](=O)[O-] | < 50000 nM | 39% |  |  |  | 
14 | Cc1ccc(C(=O)Oc2c(Br)cc(Br)cc2CC(=O)Nc2ccccc2[N+](=O)[O-])cc1 | < 50000 nM | 33% |  |  |  | 
15 | O=C(Cc1cc(Br)cc(Br)c1OC(=O)c1ccccc1Cl)Nc1ccccn1 | < 50000 nM | 0% |  | 122% |  | 42000 nM
16 | O=C(Cc1cc(Br)cc(Br)c1OC(=O)c1cccc(Br)c1)Nc1ccccc1[N+](=O)[O-] | < 50000 nM | 44% |  |  |  | 
17 | O=C(NCc1cc(Br)cc(Br)c1OC(=O)c1ccccc1Cl)c1ccccn1 | > 50000 nM | 0% |  | 105% |  | 79300 nM
18 | O=C(CCCN1C(=O)C=CC1=O)Oc1c(Br)cc(Br)cc1CNC(=O)c1ccccn1 |  |  |  | 116% | Active | 76800 nM
19 | O=C(Cc1cc(Br)cc(Br)c1OC(=O)c1ccccc1I)Nc1ccccc1[N+](=O)[O-] | 1580 nM | 50% |  |  |  | 
20 | O=C(Cc1cc(Br)cc(Br)c1OC(=O)CCCN1C(=O)C=CC1=O)N[C@H]1CCOC1=O |  |  |  | 109% | Active | > 100000 nM

Continued by falling EC50 [1], values first:

Row | EC50 [1] | Emax (Pseudomonas aeruginosa [2]) | IC50 [3] | Imax (Pseudomonas aeruginosa [4]) | inhibition (Pseudomonas aeruginosa [5]) | IC50 [6] | Structure (SMILES)
21 | 1290 nM | 76% |  |  |  |  | O=C(Cc1cc(Br)cc(Br)c1OC(=O)c1ccccc1F)Nc1ccccc1[N+](=O)[O-]
22 | 757 nM | 85% |  |  |  |  | Cc1ccccc1C(=O)Oc1c(Br)cc(Br)cc1CC(=O)Nc1ccccc1[N+](=O)[O-]
23 | 601 nM | 92% |  | 0% |  | > 100000 nM | O=C(Cc1cc(Br)cc(Br)c1OC(=O)c1ccccc1Cl)Nc1ccncn1
24 | 489 nM | 37% |  |  |  |  | O=C(Cc1cc(Br)cc(Br)c1OC(=O)c1ccccc1[N+](=O)[O-])Nc1ccccc1[N+](=O)[O-]
25 | 446 nM | 112% |  |  |  |  | O=C(Cc1cc(Br)cc(Br)c1OC(=O)c1ccccc1Cl)Nc1ccncc1[N+](=O)[O-]
26 | 436 nM | 64% |  |  |  |  | O=C(Cc1cc(Br)cc(Br)c1OC(=O)c1ccc(F)cc1Br)Nc1ccccc1[N+](=O)[O-]
27 | 372 nM | 105% |  |  |  |  | O=C(Cc1cc(Br)cc(Br)c1OC(=O)c1ccccc1Cl)Nc1ccccc1[N+](=O)[O-]
28 | 335 nM | 89% |  |  |  |  | O=C(Cc1cc(Br)cc(Br)c1OC(=O)c1ccccc1Cl)Nc1cc(F)c(F)cc1[N+](=O)[O-]
29 | 313 nM | 95% |  |  |  |  | O=C(Cc1cc(Br)cc(Br)c1OC(=O)c1c(Cl)cccc1Cl)Nc1ccccc1[N+](=O)[O-]
30 | 271 nM | 82% |  |  |  |  | O=C(Cc1cc(Br)cc(Br)c1OC(=O)c1ccccc1Br)Nc1ccccc1[N+](=O)[O-]
31 | 246 nM | 45% |  |  |  |  | COc1ccccc1C(=O)Oc1c(Br)cc(Br)cc1CC(=O)Nc1ccccc1[N+](=O)[O-]
32 | 161 nM | 56% |  |  |  |  | O=C(Cc1cc(Br)cc(Br)c1OCc1c(Cl)cccc1Cl)Nc1ccccc1[N+](=O)[O-]
33 | 45.6 nM | 116% |  | 0% |  | > 100000 nM | O=C(Cc1cc(Br)cc(Br)c1OC(=O)c1ccccc1Cl)Nc1cccc(F)c1F
34 | 0.896 nM | 105% |  |  |  |  | O=C(Cc1cc(Br)cc(Br)c1OC(=O)c1ccccc1Cl)N[C@H]1CCOC1=O
35 | 0.488 nM | 31% |  | 0% |  | > 100000 nM | O=C(NCc1cc(Br)cc(Br)c1OC(=O)c1ccccc1Cl)c1cccnc1
